Patent publication US8546579B2, “Bicycloheteroaryl compounds as P2X7 modulators and uses thereof” (Evotec (US) Inc., priority 2006, dated 2013)

Molecular target: T1, P2X7 receptor (Homo sapiens, UniProt Q99572)
T1 construct: host or cells: THP-1 cells differentiated with LPS and IFN-γ
T1 sequence (Q99572 1-595): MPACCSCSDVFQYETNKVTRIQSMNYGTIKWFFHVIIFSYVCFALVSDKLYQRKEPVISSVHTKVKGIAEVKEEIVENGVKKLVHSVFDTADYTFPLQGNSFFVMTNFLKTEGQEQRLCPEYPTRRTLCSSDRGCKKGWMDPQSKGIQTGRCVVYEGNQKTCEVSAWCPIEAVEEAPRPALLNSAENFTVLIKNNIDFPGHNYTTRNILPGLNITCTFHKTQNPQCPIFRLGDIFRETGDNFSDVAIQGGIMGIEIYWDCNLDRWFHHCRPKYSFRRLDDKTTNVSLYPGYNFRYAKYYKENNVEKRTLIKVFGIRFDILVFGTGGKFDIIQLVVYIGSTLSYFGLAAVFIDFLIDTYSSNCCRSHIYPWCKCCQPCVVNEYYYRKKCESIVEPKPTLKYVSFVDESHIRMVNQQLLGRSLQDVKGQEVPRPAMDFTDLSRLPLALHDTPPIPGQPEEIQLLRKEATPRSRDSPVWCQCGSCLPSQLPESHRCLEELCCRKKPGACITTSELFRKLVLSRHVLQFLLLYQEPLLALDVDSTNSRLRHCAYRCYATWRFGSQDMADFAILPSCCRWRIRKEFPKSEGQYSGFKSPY
Test: IL-1β release assay in differentiated THP-1 cells stimulated with BzATP (Example 9)
Format: cell-based
Set-up: inhibition: dose or concentration left out as unconfirmed
Conditions: 0.1 μM compound; differentiated THP-1 cells, BzATP 250 uM; "*" class symbols; read-out: IL-1β % Inhib. ("*" symbols: at 0.1 μM)
Protocol: THP-1 cells (ATCC Cat # 285-IF-100) are plated in 96 well plates at a concentration of 200,000 cells per well and allowed to differentiate in RPMI-1640 media (ATCC Cat # 30-2001) containing 10% FBS, 100 IU/mL penicillin, 100 ug/mL streptomycin, 100 ng/mL LPS and 100 ng/mL IFN-γ for 16 hours. Following differentiation, the cells are treated for an additional 2 hours in RPMI-1640 media containing 100 IU/mL penicillin, 100 ug/mL streptomycin and fresh LPS at 100 ng/mL. The cells are then pretreated for 30 minutes with the compound of interest at the appropriate concentration in RPMI media containing 100 IU/mL penicillin, 100 ug/mL streptomycin. Following the pretreatment 2′,3′-O-(4-benzoylbenzoyl)-adenosine 5′-triphosphate (Sigma Aldrich Cat # B6396) is added to a final concentration of 250 uM and the cells are incubated for an additional 45 minutes. 30 uL of cell supernatant is then collected and IL-1β levels determined via ELISA (R&D systems Cat. # HSLB50) according to manufacturer's recommendations using the Tecan Safire plate reader. Background adjusted IL-1β levels of drug treated and non-treated cells are used to calculate the percent inhibition.
The compounds set forth in Table 1 were tested for activity in a cellular model as described herein. Specifically, cells were pretreated with differing amounts of the compound under test and released IL-1β determined as in Example 9, above. Measurements were made and IC50 values, presented in Table 2, below, were determined by fitting the data to a four parameter logistic equation using GraphPad Prism software (GraphPad Software, Inc). The equation may be expressed by the following formula: Y=Bottom+(Top−Bottom)/(1+10^((Log EC50−X)*HillSlope)) Where X is the logarithm of concentration, Y is the response and Y starts at Bottom and goes to Top with a sigmoid shape.

inhibition at 0.1 µM | Compound
0 to 25% | CCOc1ccccc1CC(=O)Nc1cccc2c(=O)n(Cc3ccc(OC(F)(F)F)cc3)ccc12 [Compound 1604]

Same assay, conditions: 0.1 μM compound; differentiated THP-1 cells, BzATP 250 uM; '*' class symbols; read-out: IL-1β % Inhib. (asterisk classes, 0.1 μM)

inhibition at 0.1 µM | Compound
26 to 50% | CC1CCC(C(=O)Nc2cccc3c(=O)n(CCN(C)C)ccc23)CC1 (stereo not drawn) [Compound 1034]
26 to 50% | O=C(Nc1cccc2c(=O)n(CC3CCOCC3)ccc12)c1ccc(-c2ccccc2)o1 [Compound 1026]

Same assay, conditions: 0.1 μM compound; differentiated THP-1 cells, BzATP 250 uM; symbols * to ****; read-out: IL-1β % Inhib. (asterisk symbols: at 0.1 μM)

inhibition at 0.1 µM | Compound
0 to 25% | Cc1cccc(C(=O)Nc2cccc3c(=O)n(CC(C)(C)C)ccc23)c1 [Compound 1246]

Same assay, conditions: 0.3 μM compound; differentiated THP-1 cells, BzATP 250 uM; "+" class symbols; read-out: IL-1β % Inhib. @ 0.3 μM

inhibition at 0.3 µM | Compound
0 to 25% | CO[C@](C(=O)Nc1cccc2c(=O)n(CCN(C)C)ccc12)(c1ccccc1)C(F)(F)F [Compound 1616]
26 to 50% | O=C(Cc1ccc(Cl)c(C(F)(F)F)c1)Nc1cccc2c(=O)n(Cc3ccc(C(F)(F)F)nc3)ccc12 [Compound 1624, 2-(4-Chloro-3-trifluoromethyl-phenyl)-N-[1-oxo-2-(6-trifluoromethyl-pyridin-3-ylmethyl)-1,2-dihydro-isoquinolin-5-yl]-acetamide]

Same assay, conditions: 0.3 μM compound; differentiated THP-1 cells, BzATP 250 uM; '+' class symbols; read-out: IL-1β % Inhib. @ 0.3 μM

inhibition at 0.3 µM | Compound
0 to 25% | COc1ccccc1CCC(=O)Nc1cccc2c(=O)n(CC3CCOCC3)ccc12 [Compound 1094]
0 to 25% | Cc1ccc(C)c(CC(=O)Nc2cccc3c(=O)n(Cc4cccnc4)ccc23)c1 [Compound 1077]
0 to 25% | Cc1cc(C(=O)Nc2cccc3c(=O)n(CC4CCOCC4)ccc23)ccc1Cl [Compound 1033]
0 to 25% | O=C(Nc1cccc2c(=O)n(CC3CCOCC3)ccc12)c1ccc2c(c1)OCCCO2 [Compound 1118]
0 to 25% | Cc1cc(Cl)ccc1C(=O)Nc1cccc2c(=O)n(CCN(C)C)ccc12 [Compound 1166]
0 to 25% | COc1cccc(CCC(=O)Nc2cccc3c(=O)n(CC(C)(C)C)ccc23)c1 [Compound 1049]
0 to 25% | CN(C)CCn1ccc2c(NC(=O)CC3CCN(C(=O)OC(C)(C)C)CC3)cccc2c1=O [Compound 1010]
0 to 25% | COc1cc(CC(=O)Nc2cccc3c(=O)n(CCN(C)C)ccc23)cc(OC)c1 [Compound 1164]
≥ 76% | COCCn1ccc2c(NC(=O)CCc3ccccc3Cl)cccc2c1=O [Compound 1069]
0 to 25% | CN(C)CCn1ccc2c(NC(=O)Cc3csc4ccccc34)cccc2c1=O [Compound 1171]
0 to 25% | CN(C)CCn1ccc2c(NC(=O)CCc3ccc(S(C)(=O)=O)cc3)cccc2c1=O [Compound 1009]

Same assay, conditions: 0.3 μM compound; differentiated THP-1 cells, BzATP 250 uM; symbols + to ++++; read-out: IL-1β % Inhib. @ 0.3 μM

Compound | inhibition at 0.3 µM
COc1ccccc1CC(=O)Nc1cccc2c(=O)n(CC(C)(C)C)ccc12 [Compound 1254] | 0 to 25%
Cc1cccc(C(=O)Nc2cccc3c(=O)n(CCN4CCOCC4)ccc23)c1Cl [Compound 1239] | 0 to 25%
CC(=O)OCCn1ccc2c(NC(=O)Cc3ccc(Cl)c(C(F)(F)F)c3)cccc2c1=O [Compound 1380, Acetic acid 2-{5-[2-(4-chloro-3-trifluoromethyl-phenyl)-acetylamino]-1-oxo-1H-isoquinolin-2-yl}-ethyl ester] | ≥ 76%

Continued, values first:

inhibition at 0.3 µM | Compound
0 to 25% | Cn1ccc2c(NC(=O)c3cc4cc(Cl)ccc4o3)cccc2c1=O [Compound 1308]
0 to 25% | Cc1ccccc1CC(=O)Nc1cccc2c(=O)n(C)ccc12 [Compound 1296]

Same assay, conditions: THP-1; read-out: IL-1β % Inhib.

inhibition | Compound
0 to 25% | Cc1ccccc1C(=O)Nc1cccc2c(=O)n(Cc3ccc(OC(F)(F)F)cc3)ccc12 [Compound 1562]
0 to 25% | CC(C)Cc1ccc(C(=O)Nc2cccc3c(=O)n(C)ccc23)cc1 [Compound 1425]
0 to 25% | CN1CCC(Cn2ccc3c(NC(=O)c4ccc5ccccc5c4)cccc3c2=O)CC1 [Compound 1471]
0 to 25% | COc1ccc(CC(=O)Nc2cccc3c(=O)n(CCCN4CCCC4=O)ccc23)cc1 [Compound 1522]
0 to 25% | COCCn1ccc2c(NC(=O)c3ccc4ccccc4c3)cccc2c1=O [Compound 1434]
0 to 25% | COc1ccc(CC(=O)Nc2cccc3c(=O)n(CC4CCN(C)CC4)ccc23)cc1OC [Compound 1473]

Same assay, conditions: THP-1 cells, BzATP-stimulated IL-1β release, four parameter logistic fit

Compound | IC50
CN(C)CCn1ccc2c(NC(=O)CC3CCN(C(=O)OC(C)(C)C)CC3)cccc2c1=O [Compound 1010] | > 1000 nM
CN(C)CCn1ccc2c(NC(=O)CCc3ccc(S(C)(=O)=O)cc3)cccc2c1=O [Compound 1009] | > 1000 nM
CC(=O)OCCn1ccc2c(NC(=O)Cc3ccc(Cl)c(C(F)(F)F)c3)cccc2c1=O [Compound 1380, Acetic acid 2-{5-[2-(4-chloro-3-trifluoromethyl-phenyl)-acetylamino]-1-oxo-1H-isoquinolin-2-yl}-ethyl ester] | 5.33 nM

The remaining lines, values ahead:

IC50 | Compound
> 1000 nM | CO[C@](C(=O)Nc1cccc2c(=O)n(CCN(C)C)ccc12)(c1ccccc1)C(F)(F)F [Compound 1616]
365 nM | O=C(Cc1ccc(Cl)c(C(F)(F)F)c1)Nc1cccc2c(=O)n(Cc3ccc(C(F)(F)F)nc3)ccc12 [Compound 1624, 2-(4-Chloro-3-trifluoromethyl-phenyl)-N-[1-oxo-2-(6-trifluoromethyl-pyridin-3-ylmethyl)-1,2-dihydro-isoquinolin-5-yl]-acetamide]
